Here are results for 1 compound from publication PMC6882468 (Journal of Enzyme Inhibition and Medicinal Chemistry, 2019).

The test system of one data set is RAW 264.7 cells. Put plainly: Cell viability assay (MTT). The format is cell-based, Murine. The conditions noted are these: RAW264.7 cells, concentrations ranging from 5 to 50 µM, 24 h. As to the method: Murine RAW 264.7 macrophages were obtained from the American Type Culture Collection (ATCC, USA). The cells were incubated in DMEM media supplemented with 10% FBS, 100 U/mL penicillin and […] streptomycin at 37 °C with 5% CO2. Cell viability was assessed using the MTT assay. RAW 264.7 cells were inoculated in 96-well plate at a density of 1.0 × 10^5 cells per well. After incubated for 24 h, the cells were treated with various concentrations of the compound. After an additional 24-h incubation, 20 µL of 0.5 mg/mL MTT reagent was added to wells and incubated for another 4 h. After 4 h, cell culture media was removed and DMOS was added into each well, and then, the optical density was measured at 570 nm. The IC50 values were determined by GraphPad Prism 6.

Data set [1] has as its system NF-κB activation in RAW264.7 cells. The experiment in a line: Western blot of LPS-induced NF-κB activation. The format is cell-based, Murine. The conditions noted are these: RAW264.7, 2-h pre-treatment before LPS stimulation. As to the method:
The cell in 96-well plates were treated as described above and then stimulated with LPS (200 ng/mL) for 24 h. The cells were harvested and lysed in an extraction lysis buffer (Beyotime Biotechnology, Shanghai, China) containing protease inhibitors. The protein concentration was determined using a BCA protein assay kit (Thermo Scientific, 23227). The whole cell lysates were separated by 10% sodium dodecyl sulphate-polyacrylamide gel electrophoresis and transferred to a nitrocellulose membrane. Each membrane was incubated with Tris-buffered saline (pH 7.6, containing 0.05% Tween-20 and 5% non-fat milk). The nitrocellulose membrane was incubated with the primary antibody against p-JNK1/2, JNK1/2, p-p38, p38, p-ERK1/2, ERK1/2, IκBa, NF-κB p65, COX-2, iNOS or β-Actin (Abcam, Cambridge, UK). Immunoreactive bands were detected by incubating with horseradish peroxidase-conjugated secondary antibodies, and visualised using enhanced chemiluminescence reagents (Bio-Rad, Hercules, CA).
Figure 5. Compound 6n inhibited LPS-induced NF-κB activation in RAW264.7 cells. […] The levels of NF-κB p65, IκB, and their phosphorylated forms were analysed using western blot.

Data set [2] deals with DNFB-induced mouse model of allergic contact dermatitis. The experiment in a line: DNFB-induced mouse model of allergic contact dermatitis (ear swelling). The format is in vivo, Male ICR mice. As to the method:
Male ICR mice (20 ± 2 g) were obtained from the Experimental Animal Centre of Anhui Medical University (Hefei, China). The mice reared in a pathogen-free setting (23 ± 2 °C, 55 ± 5% humidity) with free access to water and pelleted food throughout the experimental cycle. All experimental procedures performed in accordance with guide for the Care and Use of Laboratory Animals (National Research Council, 1996) and were approved by the Experimental Animal Ethics Committee of Anhui University of Chinese Medicine (Hefei, China). After 7 days acclimatisation, the mice were randomly divided into control group, ACD model group, dexamethasone positive control group and 20 compound groups, six in each group. The control group and the model group were given the same dose of the vehicle, the positive control group was given dexamethasone 0.5 mg/kg, and the test compound groups were given compound 5 mg/kg, all of which were given by intragastric administration and were administered once a day for 6 days. Except for the control group, the 50 µL of 1% DNFB (in acetone/olive oil 4:1) was administered to the stripped epidermis, and repeated the next day. After 6 days of drug treatment, 10 µL of 1% DNFB acetone olive oil solution was applied on both sides of the right ear to stimulate inflammation, and equivalent acetone olive oil solution was applied on the left ear for comparison. […] Calculation was carried out according to the following equations. Swelling degree (mg) = MR – ML Inhibitory rate of ear swelling (%)=((MR – ML) model – (MR – ML) treated)/(MR – ML) model ×100% MR=Average weight of the right ear slices;ML= Average weight of the left ear slices […] Dexamethasone (DEX) at a p.o. dose of 0.5 mg/kg was employed as the positive control. After the mice were sacrificed, the swelling degree and inhibition rate were calculated by weighing the same part of both ears.

The target in the next data set is p38α MAPK (Homo sapiens, UniProt Q16539). The experiment in a line: p38α MAPK inhibition assay in vitro. The format is biochemical. The following applies: triplicate, read-out: IC50 p38p. As to the method: In brief, after mixing the enzyme reagent with the sample, a reaction mixture containing 200 µM biotin-peptide substrate and 600 µM ATP (+100 µCi/mL γ-^32 P-ATP) was added to initiate the reaction. […] Part of the reaction solution was transferred to the well of a streptavidin-coated flash plate, washed in PBS containing 0.01% Tween and sealed. The average value of counts per minute for each group and the IC50 value was calculated.
The average fluorescence values of each well were calculated and recorded as RFU (Relative Fluorescence Unit) blank control (RFU blank), RFU 100% enzyme activity control (RFU enzyme), RFU positive drug control (RFU drug) and RFU test compound (RFU compound). The inhibition rate is calculated according to the following formula. Inhibition rate (%)= (RFU (enzyme) – RFU (compound/drug) […]) /(RFU (enzyme) – RFU (blank)) * 100%
The IC50 value of the test compound was calculated by the concentration-inhibition reaction curve and the assays were performed in triplicate.

p38α MAPK, sequence (Q16539 whole entry): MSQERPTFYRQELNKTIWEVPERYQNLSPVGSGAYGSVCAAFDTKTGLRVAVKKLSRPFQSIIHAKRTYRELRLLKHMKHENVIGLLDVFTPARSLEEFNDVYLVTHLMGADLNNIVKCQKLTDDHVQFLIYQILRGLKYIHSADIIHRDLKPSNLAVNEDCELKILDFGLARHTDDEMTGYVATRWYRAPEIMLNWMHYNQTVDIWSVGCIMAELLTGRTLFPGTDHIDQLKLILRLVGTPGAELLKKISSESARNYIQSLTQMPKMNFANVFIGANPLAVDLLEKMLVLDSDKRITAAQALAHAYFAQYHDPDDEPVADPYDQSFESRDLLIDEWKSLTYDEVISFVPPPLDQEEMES

For orientation: IC50 means the concentration that gives 50% inhibition. On to `COc1ccccc1CN1CCN(C(=O)c2ccccc2C(C)=O)CC1` [Compound 6n, 1–(2-(4–(2-Methoxybenzyl)piperazine-1-carbonyl)phenyl)ethan-1-one], for which the cytotoxicity entry in the data set with RAW 264.7 cells is recorded as “no significant toxicity”. Besides, in data set [1], the “LPS-induced IκB phosphorylation” value is “markedly decreased”, the “accumulation of NF-κB p65 subunit in the nucleus” value is “lowered” and the “cytosolic IκB” value is “increased”. The “Swelling degree” value in data set [2] (mice, 5 mg/kg intragastric once a day for 6 days, ear slices weighed 24 h after DNFB challenge, Mean ± SD, n = 6) was 8.8 ± 3.2 mg. Also, the “Inhibition (%) of ear swelling” value in data set [2] (mice, 5 mg/kg intragastric once a day for 6 days, vs model group) was determined as 46.3%. The “in vivo inhibitory activity, in words” value in data set [2] (p.o. 5 mg/kg, p < 0.01) is “significant inhibitory activity”. Further, on p38α MAPK, the half-maximal inhibitory concentration (IC50) came out at 1950 ± 130 nM.
